Measured values reported in ChEMBL document CHEMBL1201862, “PubChem BioAssay data set” (2004).
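Grown in 96-well plates, cells were treated for 48 hours with each compound at five concentrations. Insufficient inhibition: endpoint recorded as highest concentration tested. GI50 is the concentration that inhibits growth by half.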 Active and inactive are the calls of the source. Rule as the data show it: active = GI50 up to about 1.1 µM and inactive = higher.

How the values were obtained:
Experiment in all cases: NCI-60 cell line screen, 48 h
[1] = tested on: HT-29
[2] = tested on: MCF7
[3] = tested on: Hs-578T
[4] = tested on: PC-3
[5] = tested on: A549
[6] = tested on: T47D
[7] = tested on: ACHN
[8] = tested on: SR
[9] = tested on: SNB-19
[10] = tested on: U-251
[11] = tested on: EKVX
[12] = tested on: OVCAR-5
[13] = tested on: SNB-75
[14] = tested on: COLO 205
[15] = tested on: NCI-H23
[16] = tested on: MDA-MB-231
[17] = tested on: MOLT-4
[18] = tested on: NCI-H226
[19] = tested on: SF-268

Measured: GI50

COc1cccc(C2c3cc4c(cc3OC(N3CCCC3)C2C)OCO4)c1O (stereo not drawn)
inactive: [1] 3.32 µM | [2] 6.68 µM | [3] 3.04 µM | [4] 4.49 µM | [5] 5.83 µM | [6] 9.95 µM | [7] 6.59 µM | [8] 4.38 µM | [9] 7.6 µM | [10] 3.49 µM | [11] 9.68 µM | [12] 11.3 µM | [13] 2.4 µM | [14] 3.37 µM | [15] 4.08 µM | [16] 8.02 µM | [17] 6.7 µM | [18] 4.53 µM | [19] 5.97 µM

Cc1cc(=O)oc2c(CN(CCCl)CCCl)c(O)ccc12
inactive: [1] 22.7 µM | [2] 11.4 µM | [3] 72.3 µM | [4] 44 µM | [5] 27.5 µM | [6] 31.5 µM | [7] 13.6 µM | [8] 43.6 µM | [9] 24.3 µM | [10] 38.4 µM | [11] > 100 µM | [12] > 100 µM | [13] 53.5 µM | [14] 18 µM | [15] 43.3 µM | [16] > 100 µM | [17] 4.99 µM | [18] 35.3 µM | [19] 59.3 µM

CCOC(=O)Cn1sc2ncc([N+](=O)[O-])cc2c1=O
inactive: [1] 16.2 µM | [2] 18.1 µM | [3] 41 µM | [4] 14.8 µM | [5] 19.3 µM | [6] 16.5 µM | [7] 15.9 µM | [8] 4.02 µM | [11] 27.9 µM | [12] 19.2 µM | [13] 39.5 µM | [14] 13 µM | [15] 17.9 µM | [16] 15.7 µM | [17] 2.86 µM | [18] > 100 µM | [19] 24.5 µM

N#Cc1c(N)c2c(c(-c3ccccc3)c1-c1ccccc1)C(=O)N(NC(=S)Nc1ccccc1)C2=O
inactive: [2] 60.3 µM | [3] 39.4 µM | [4] 30.5 µM | [5] 64.1 µM | [6] 48.2 µM | [7] 94.2 µM | [8] 68.7 µM | [9] > 100 µM | [10] > 100 µM | [11] > 100 µM | [12] 35.2 µM | [13] 65.2 µM | [14] 75.2 µM | [16] > 100 µM | [17] 46.8 µM | [18] > 100 µM | [19] > 100 µM

CC(=O)OCC1OC(SC2=NC(=O)/C(=C/c3ccccc3)S2)C(OC(C)=O)C(OC(C)=O)C1OC(C)=O (stereo not drawn)
inactive: [1] 37.8 µM | [2] 18.9 µM | [3] 23.3 µM | [4] 40.1 µM | [5] 44 µM | [6] 24.2 µM | [7] 48.2 µM | [8] 10.9 µM | [9] 35.1 µM | [10] 30.9 µM | [11] 21.2 µM | [12] > 100 µM | [13] 18.2 µM | [14] 45.6 µM | [15] 52.5 µM | [16] 23.3 µM | [17] 21.8 µM | [18] 33.8 µM | [19] 20.1 µM

CN(C)c1ccc(/C=C2\C[C@H]3[C@@H]4CC=C5C[C@@H](O)CC[C@]5(C)[C@H]4CC[C@]3(C)[C@H]2O)cc1
inactive: [1] 8.09 µM | [2] 17.4 µM | [3] 23.4 µM | [4] 13.1 µM | [5] 13.6 µM | [6] 23.3 µM | [7] 16 µM | [8] 21 µM | [9] 15.7 µM | [10] 8.2 µM | [11] 4.81 µM | [12] 17.3 µM | [13] 29.2 µM | [14] 11 µM | [15] 15.9 µM | [16] 16.2 µM | [17] 32 µM | [18] 17.4 µM | [19] 17 µM

COC(=O)c1cnn2c1n[n+]([O-])c1ccccc12
inactive: [1] > 100 µM | [2] > 100 µM | [3] > 100 µM | [4] > 100 µM | [5] > 100 µM | [6] > 100 µM | [7] > 100 µM | [8] > 100 µM | [10] > 100 µM | [11] > 100 µM | [12] > 100 µM | [13] > 100 µM | [14] 85.5 µM | [15] 57 µM | [16] > 100 µM | [17] > 100 µM | [18] > 100 µM | [19] > 100 µM
